Measured values from US6403535B1, “Substituted thiazol(in) ylideneamino sulfonylamino (thio)carbonyl-triazolinones” (Bayer Aktiengesellschaft, priority 1998, dated 2002).

Columns and labels:
Amaranthus [1] = test: Pre-emergence test/greenhouse; type: in vivo; details: 504 h, after three weeks, read-out: degree of damage, Amaranthus; for pest or weed control at 125 g/ha: 125 g of a.i./ha
Description: (§1) To produce a suitable preparation of active compound, 1 part by weight of active compound is mixed with the stated amount of solvent, the stated amount of emulsifier is added and the concentrate is diluted with water to the desired concentration.
(§2) Seeds of the test plants are sown in normal soil. After about 24 hours, the soil is sprayed with the preparation of active compound such that the particular amount of active compound desired is applied per unit area. The concentration of the spray liquor is chosen so that the particular amount of active compound desired is applied in 1000 liters of water per hectare.
(§3) After three weeks, the degree of damage to the plants is rated in % damage in comparison to the development of the untreated control.
(§4) 0%=no effect (like untreated control)

Chenopodium [2] = test: Pre-emergence test/greenhouse; type: in vivo; details: after three weeks
Description: as §1, §2, §3, §4

Veronica [3] = test: Pre-emergence test/greenhouse; type: in vivo; details: 504 h, after three weeks, read-out: degree of damage, Veronica; for pest or weed control at 125 g/ha: 125 g of a.i./ha
Description: as §1, §2, §3, §4

Matricaria [4] = test: Pre-emergence test/greenhouse; type: in vivo; details: 504 h, after three weeks, read-out: degree of damage, Matricaria; for pest or weed control at 125 g/ha: 125 g of a.i./ha
Description: as §1, §2, §3, §4

Setaria [5] = test: Pre-emergence test/greenhouse; type: in vivo; details: after three weeks
Description: as §1, §2, §3, §4

Echinochloa [6] = test: Pre-emergence test/greenhouse; type: in vivo; details: 504 h, after three weeks, read-out: degree of damage, Echinochloa; for pest or weed control at 125 g/ha: 125 g of a.i./ha
Description: as §1, §2, §3, §4

Maize = test: Pre-emergence test/greenhouse; type: in vivo; details: 125 g of a.i./ha, after three weeks, 0%=no effect, 100%=total destruction
Description: as §1, §2, §3, §4

Sugar beet = test: Pre-emergence test/greenhouse; type: in vivo; details: 125 g of a.i./ha, after three weeks, 0%=no effect, 100%=total destruction
Description: as §1, §2, §3, §4

weeds [7] = test: Pre-emergence test, activity against weeds; type: in vivo
Description: as §1, §2, §3, §4

Amaranthus [8] = test: Post-emergence test/greenhouse; type: in vivo; details: 504 h, after three weeks, read-out: degree of damage, Amaranthus; for pest or weed control at 60 g/ha: 60 g of a.i./ha; for pest or weed control at 125 g/ha: 125 g of a.i./ha
Description: as §1
(§5) Test plants of a height of 5 -15 cm are sprayed with the preparation of active compound such that the particular amounts of active compound desired are applied per unit area. The concentration of the spray liquor is chosen so that the particular amounts of active compound desired are applied in 1000 l of water/ha.
as §3, §4

Abutilon = test: Post-emergence test/greenhouse; type: in vivo; details: 504 h, after three weeks, read-out: degree of damage, Abutilon; for pest or weed control at 60 g/ha: 60 g of a.i./ha; for pest or weed control at 125 g/ha: 125 g of a.i./ha
Description: as §1, §5, §3, §4

Stellaria = test: Post-emergence test/greenhouse; type: in vivo; details: 504 h, after three weeks, read-out: degree of damage, Stellaria; for pest or weed control at 60 g/ha: 60 g of a.i./ha; for pest or weed control at 125 g/ha: 125 g of a.i./ha
Description: as §1, §5, §3, §4

Solanum = test: Post-emergence test/greenhouse; type: in vivo; details: 504 h, after three weeks, read-out: degree of damage, Solanum; for pest or weed control at 60 g/ha: 60 g of a.i./ha; for pest or weed control at 125 g/ha: 125 g of a.i./ha
Description: as §1, §5, §3, §4

Setaria [9] = test: Post-emergence test/greenhouse; type: in vivo; details: after three weeks
Description: as §1, §5, §3, §4

weeds [10] = test: Post-emergence test, activity against weeds; type: in vivo
Description: as §1, §5, §3, §4

Chenopodium [11] = test: Post-emergence test/greenhouse; type: in vivo; details: 504 h, after three weeks, read-out: degree of damage, Chenopodium; for pest or weed control at 125 g/ha: 125 g of a.i./ha; for pest or weed control at 60 g/ha: 60 g of a.i./ha
Description: as §1, §5, §3, §4

Veronica [12] = test: Post-emergence test/greenhouse; type: in vivo; details: 60 g of a.i./ha, after three weeks
Description: as §1, §5, §3, §4

Matricaria [13] = test: Post-emergence test/greenhouse; type: in vivo; details: 60 g of a.i./ha, after three weeks
Description: as §1, §5, §3, §4

Polygonum = test: Post-emergence test/greenhouse; type: in vivo; details: 60 g of a.i./ha, after three weeks
Description: as §1, §5, §3, §4

Digitaria = test: Pre-emergence test/greenhouse; type: in vivo; details: 125 g of a.i./ha, after three weeks
Description: as §1, §2, §3, §4

Echinochloa [14] = test: Post-emergence test/greenhouse; type: in vivo; details: 60 g of a.i./ha, after three weeks
Description: as §1, §5, §3, §4

Sorghum = test: Post-emergence test/greenhouse; type: in vivo; details: 60 g of a.i./ha, after three weeks
Description: as §1, §5, §3, §4

| SMILES | pest or weed control at 125 g/ha (Amaranthus [1]) [%] | pest or weed control at 125 g/ha (Echinochloa [6]) [%] | pest or weed control at 125 g/ha (Veronica [3]) [%] | pest or weed control at 125 g/ha (Matricaria [4]) [%] | activity against weeds (weeds [7]) | activity against weeds (weeds [10]) | pest or weed control at 125 g/ha (Amaranthus [8]) [%] | pest or weed control at 125 g/ha (Abutilon) [%] | pest or weed control at 125 g/ha (Stellaria) [%] | pest or weed control at 125 g/ha (Solanum) [%] | degree of damage, Chenopodium (Chenopodium [2]; 125 g of a.i./ha) [%] | also measured |
| --- | --- | --- | --- | --- | --- | --- | --- | --- | --- | --- | --- | --- |
| CCCn1ccs/c1=N\S(=O)(=O)NC(=O)n1nc(OCC)n(C2CC2)c1=O [Example 56] | – | – | – | – | – | – | – | – | – | – | – | pest or weed control at 250 g/ha (Amaranthus [1]; 250 g of a.i./ha): 100%; degree of damage, Chenopodium (Chenopodium [2]; 250 g of a.i./ha): 100%; pest or weed control at 250 g/ha (Veronica [3]; 250 g of a.i./ha): 100%; pest or weed control at 250 g/ha (Matricaria [4]; 250 g of a.i./ha): 100%; degree of damage, Setaria (Setaria [5]; 250 g of a.i./ha): 100% |
| COc1nn(C(=O)NS(=O)(=O)/N=c2\sccn2CCCF)c(=O)n1C [Example 124] | 70 | 90 | 95 | 100 | very strong activity | – | – | – | – | – | – | degree of damage, Maize (Maize): 0%; degree of damage, Sugar beet (Sugar beet): 0%; degree of damage, Setaria (Setaria [5]; 125 g of a.i./ha): 95%; melting point: 189 °C |
| CCCc1nn(C(=O)NS(=O)(=O)/N=c2\sccn2CCC)c(=O)n1C [Example 2] | – | – | – | – | – | very strong activity | – | – | – | – | – | pest or weed control at 60 g/ha (Amaranthus [8]): 90%; pest or weed control at 60 g/ha (Abutilon): 90%; pest or weed control at 60 g/ha (Stellaria): 90%; pest or weed control at 60 g/ha (Solanum): 95%; degree of damage, Setaria (Setaria [9]; 60 g of a.i./ha): 90% |
| CCCc1nn(C(=O)NS(=O)(=O)/N=c2\sccn2CCC)c(=O)n1C1CC1 [Example 55] | – | – | – | – | – | very strong activity | 100 | 95 | 100 | 90 | – | pest or weed control at 125 g/ha (Chenopodium [11]): 100% |
| CCCn1ccs/c1=N\S(=O)(=O)NC(=O)n1nc(OC(C)C)n(C)c1=O [Example 9] | – | – | – | – | – | very strong activity | – | – | – | – | – | pest or weed control at 60 g/ha (Amaranthus [8]): 90%; pest or weed control at 60 g/ha (Abutilon): 90%; pest or weed control at 60 g/ha (Chenopodium [11]): 80%; pest or weed control at 60 g/ha (Stellaria): 90% |
| CCCn1ccs/c1=N\S(=O)(=O)NC(=O)n1nc(C2CC2)n(C)c1=O [Example 41] | – | – | – | – | – | very strong activity | 90 | 90 | 95 | 90 | – | degree of damage, Setaria (Setaria [9]; 125 g of a.i./ha): 70% |
| CC(C)Oc1nn(C(=O)NS(=O)(=O)/N=c2\sccn2CCCF)c(=O)n1C1CC1 [Example 131] | 100 | 80 | 95 | 100 | very strong activity | very strong activity | – | – | – | – | 95 | pest or weed control at 60 g/ha (Amaranthus [8]): 100%; pest or weed control at 60 g/ha (Abutilon): 90%; pest or weed control at 60 g/ha (Chenopodium [11]): 95%; degree of damage, Veronica (Veronica [12]): 90%; pest or weed control at 60 g/ha (Stellaria): 95%; degree of damage, Matricaria (Matricaria [13]): 95%; melting point: 154 °C |
| C/C=C/c1nn(C(=O)NS(=O)(=O)/N=c2\sccn2CCC)c(=O)n1C1CC1 [Example 51] | 100 | – | 100 | 100 | very strong activity | – | – | – | – | – | 95 | – |
| CCCn1ccs/c1=N\S(=O)(=O)NC(=O)n1nc(OC2CC2)n(C2CC2)c1=O [Example 34] | – | – | – | – | – | very strong activity | 100 | 95 | 100 | 100 | – | pest or weed control at 125 g/ha (Chenopodium [11]): 100%; degree of damage, Setaria (Setaria [9]; 125 g of a.i./ha): 70% |
| CCCn1ccs/c1=N\S(=O)(=O)NC(=O)n1nc(OCC)n(CC)c1=O [Example 49] | – | – | – | – | – | very strong activity | 100 | 70 | 95 | 95 | – | pest or weed control at 125 g/ha (Chenopodium [11]): 100% |
| CCCn1ccs/c1=N\S(=O)(=O)NC(=O)n1nc(OC)n(C2CC2)c1=O [Example 29] | 100 | 95 | 100 | 95 | very strong activity | – | – | – | – | – | 100 | – |
| CC(C)Oc1nn(C(=O)NS(=O)(=O)/N=c2/sccn2CCCF)c(=O)n1C [Example 125] | 70 | 90 | 100 | 100 | very strong activity | very strong activity | – | – | – | – | 95 | pest or weed control at 60 g/ha (Abutilon): 90%; pest or weed control at 60 g/ha (Stellaria): 90%; degree of damage, Polygonum (Polygonum): 90%; pest or weed control at 60 g/ha (Solanum): 90%; melting point: 170 °C |
| CCCn1ccs/c1=N\S(=O)(=O)NC(=O)n1nc(OCC)n(C2CC2)c1=O [Example 30] | 100 | 95 | 100 | 100 | very strong activity | – | – | – | – | – | 100 | degree of damage, Digitaria (Digitaria): 90% |
| CCCn1ccs/c1=N\S(=O)(=O)NC(=O)n1nc(OCC2CC2)n(C)c1=O [Example 48] | – | – | – | – | – | very strong activity | 95 | 80 | 80 | 80 | – | pest or weed control at 125 g/ha (Chenopodium [11]): 100% |
| CCOc1nn(C(=O)NS(=O)(=O)/N=c2\sccn2CCCF)c(=O)n1C1CC1 [Example 130] | 100 | 100 | 100 | 100 | very strong activity | very strong activity | – | – | – | – | 100 | pest or weed control at 60 g/ha (Amaranthus [8]): 100%; pest or weed control at 60 g/ha (Abutilon): 95%; pest or weed control at 60 g/ha (Chenopodium [11]): 100%; degree of damage, Veronica (Veronica [12]): 100%; pest or weed control at 60 g/ha (Stellaria): 95%; degree of damage, Matricaria (Matricaria [13]): 100%; melting point: 180 °C |
| CCCn1ccs/c1=N\S(=O)(=O)NC(=O)n1nc(OC(C)C)n(C2CC2)c1=O [Example 33] | 100 | 80 | 95 | 100 | very strong activity | very strong activity | 100 | 100 | 95 | 95 | 100 | pest or weed control at 125 g/ha (Chenopodium [11]): 100%; degree of damage, Setaria (Setaria [9]; 125 g of a.i./ha): 80% |
| CCOc1nn(C(=O)NS(=O)(=O)/N=c2\sccn2CCCF)c(=O)n1C [Example 1] | – | – | – | – | very strong activity | very strong activity | – | – | – | – | – | pest or weed control at 60 g/ha (Amaranthus [1]; 60 g of a.i./ha): 100%; pest or weed control at 60 g/ha (Echinochloa [6]; 60 g of a.i./ha): 100%; pest or weed control at 60 g/ha (Veronica [3]; 60 g of a.i./ha): 100%; pest or weed control at 60 g/ha (Matricaria [4]; 60 g of a.i./ha): 100%; degree of damage, Setaria (Setaria [5]; 60 g of a.i./ha): 100%; pest or weed control at 60 g/ha (Amaranthus [8]): 95%; degree of damage, Echinochloa (Echinochloa [14]): 95%; degree of damage, Veronica (Veronica [12]): 90%; degree of damage, Sorghum (Sorghum): 95%; degree of damage, Polygonum (Polygonum): 90%; melting point: 178 °C |
